Measurements reported in ChEMBL document CHEMBL1255274, “Microdialysis study of imipenem distribution in the peritoneal fluid of rats with experimental acute pancreatitis” (Antimicrob Agents Chemother, 2008).

How the values were obtained:
Format in all cases: ADME, organism-based
Set-up in all cases: dose 30 mg/kg, route intravenous
[1] = Clearance in pancreatitis Sprague-Dawley rat blood at 30 mg/kg, iv after 30 mins
[2] = Half life pancreatitis Sprague-Dawley rat peritoneal fluid at 30 mg/kg, iv after 30 mins
[3] = Tmax in pancreatitis Sprague-Dawley rat blood at 30 mg/kg, iv after 30 mins
[4] = Tmax in pancreatitis Sprague-Dawley rat peritoneal fluid at 30 mg/kg, iv after 30 mins
[5] = Cmax in pancreatitis Sprague-Dawley rat blood at 30 mg/kg, iv after 30 mins
[6] = Cmax in pancreatitis Sprague-Dawley rat peritoneal fluid at 30 mg/kg, iv after 30 mins
[7] = Selectivity ratio of AUC in pancreatitis Sprague-Dawley rat peritoneal fluid to AUC in pancreatitis Sprague-Dawley rat blood at 30 mg/kg, iv after 30 mins; conditions: read-out: Ratio AUC
[8] = Half life in pancreatitis Sprague-Dawley rat blood at 30 mg/kg, iv after 30 mins

clearance [1]: 17 mL/min/kg | half-life [2]: 17.6 min | Tmax [3]: 35 min | Tmax [4]: 36.7 min | Cmax [5]: 53.9 µg/mL | Cmax [6]: 51.8 µg/mL | half-life [8]: 17.3 min
Structure (SMILES): C[C@@H](O)[C@H]1C(=O)N2C(C(=O)O)=C(SCCN=CN)C[C@H]12 [IMIPENEM ANHYDROUS]
Kp at 0.5 h [7]: 1.08
